Laboratory results reported in ChEMBL document CHEMBL3885881, “DrugMatrix”.

Species: Rattus norvegicus
Experiment: DrugMatrix - Regimen: Daily Repeat
Assay type: toxicity, organism-based, Sprague-Dawley
Parameters: regimen Daily Repeat, gender Male, age 6-8 weeks
Conditions: in vivo, po, route oral GAVAGE, […]; for ABSOLUTE BASOPHIL / ABSOLUTE EOSINOPHIL / ABSOLUTE LYMPHOCYTE / ABSOLUTE MONOCYTE / ABSOLUTE SEGMENTED NEUTROPHIL / BASOPHIL / EOSINOPHIL / ERYTHROCYTE COUNT / HEMATOCRIT / HEMOGLOBIN / LEUKOCYTE COUNT / LYMPHOCYTE / MEAN CORPUSCULAR HEMOGLOBIN / MEAN CORPUSCULAR HEMOGLOBIN CONCENTRATION / MEAN CORPUSCULAR VOLUME / MONOCYTE / NEUTROPHIL / NUCLEATED RED BLOOD CELLS / PLATELET COUNT: tissue Blood; for ALANINE AMINOTRANSFERASE / ALBUMIN / ALKALINE PHOSPHATASE / ASPARTATE AMINOTRANSFERASE / BLOOD UREA NITROGEN / CARBON DIOXIDE / CHLORIDE / CHOLESTEROL / CREATINE PHOSPHOKINASE / CREATININE / GLUCOSE / LACTATE DEHYDROGENASE / LIPASE / PHOSPHORUS / POTASSIUM / SODIUM / TOTAL BILIRUBIN / TOTAL PROTEIN / URIC ACID: tissue Plasma
[1] = 48.8 mg/kg, 72 h, dose level Low, time 3 day
[2] = 48.8 mg/kg, 120 h, dose level Low, time 5 day
[3] = 488 mg/kg, 72 h, dose level High, time 3 day
[4] = 488 mg/kg, 120 h, dose level High, time 5 day

## C=CCc1ccc2c(c1)OCO2 [SAFROLE]
[1]
  ABSOLUTE BASOPHIL: 0 CELLS/uL
  ABSOLUTE EOSINOPHIL: 0 CELLS/uL
  ABSOLUTE LYMPHOCYTE: 11419.67 CELLS/uL
  ABSOLUTE MONOCYTE: 222 CELLS/uL
  ABSOLUTE SEGMENTED NEUTROPHIL: 1191.67 CELLS/uL
  BASOPHIL: 0%
  EOSINOPHIL: 0%
  ERYTHROCYTE COUNT: 5.33 x10E6/uL
  HEMATOCRIT: 33.63%
  HEMOGLOBIN: 13.47 G/DL
  LEUKOCYTE COUNT: 12.83 x10E3/uL
  LYMPHOCYTE: 89%
  MEAN CORPUSCULAR HEMOGLOBIN: 25.3 pg
  MEAN CORPUSCULAR HEMOGLOBIN CONCENTRATION: 40.03 G/DL
  MEAN CORPUSCULAR VOLUME: 63.03 fL
  MONOCYTE: 1.67%
  NEUTROPHIL: 9.33%
  NUCLEATED RED BLOOD CELLS: 0 /100WBC
  PLATELET COUNT: 1123 x10E3/uL
  ALANINE AMINOTRANSFERASE: 71.67 u/L
  ALBUMIN: 4 G/DL
  ALKALINE PHOSPHATASE: 447.67 u/L
  ASPARTATE AMINOTRANSFERASE: 90.67 u/L
  BLOOD UREA NITROGEN: 13.33 mg/dL
  CARBON DIOXIDE: 26 mmol/L
  CHLORIDE: 101.67 MEQ/L
  CHOLESTEROL: 78.67 mg/dL
  CREATINE PHOSPHOKINASE: 266.33 u/L
  CREATININE: 0.21 mg/dL
  GLUCOSE: 149.33 mg/dL
  LACTATE DEHYDROGENASE: 158.33 u/L
  LIPASE: 11.67 u/L
  PHOSPHORUS: 11.73 mg/dL
  POTASSIUM: 6.6 MEQ/L
  SODIUM: 143.53 MEQ/L
  TOTAL BILIRUBIN: 0.23 mg/dL
  TOTAL PROTEIN: 5.57 G/DL
  URIC ACID: 1.4 mg/dL
[2]
  ABSOLUTE BASOPHIL: 0 CELLS/uL
  ABSOLUTE EOSINOPHIL: 30.67 CELLS/uL
  ABSOLUTE LYMPHOCYTE: 9371 CELLS/uL
  ABSOLUTE MONOCYTE: 61.33 CELLS/uL
  ABSOLUTE SEGMENTED NEUTROPHIL: 1037 CELLS/uL
  BASOPHIL: 0%
  EOSINOPHIL: 0.33%
  ERYTHROCYTE COUNT: 5.63 x10E6/uL
  HEMATOCRIT: 35.6%
  HEMOGLOBIN: 14.13 G/DL
  LEUKOCYTE COUNT: 10.5 x10E3/uL
  LYMPHOCYTE: 89%
  MEAN CORPUSCULAR HEMOGLOBIN: 25.07 pg
  MEAN CORPUSCULAR HEMOGLOBIN CONCENTRATION: 39.67 G/DL
  MEAN CORPUSCULAR VOLUME: 63.27 fL
  MONOCYTE: 0.67%
  NEUTROPHIL: 10%
  NUCLEATED RED BLOOD CELLS: 1 /100WBC
  PLATELET COUNT: 1163.33 x10E3/uL
  ALANINE AMINOTRANSFERASE: 65 u/L
  ALBUMIN: 4.07 G/DL
  ALKALINE PHOSPHATASE: 334.67 u/L
  ASPARTATE AMINOTRANSFERASE: 88.67 u/L
  BLOOD UREA NITROGEN: 12 mg/dL
  CARBON DIOXIDE: 31.33 mmol/L
  CHLORIDE: 102 MEQ/L
  CHOLESTEROL: 59.67 mg/dL
  CREATINE PHOSPHOKINASE: 260.67 u/L
  CREATININE: 0.22 mg/dL
  GLUCOSE: 164.33 mg/dL
  LACTATE DEHYDROGENASE: 263.33 u/L
  LIPASE: 11.67 u/L
  PHOSPHORUS: 10.97 mg/dL
  POTASSIUM: 6.08 MEQ/L
  SODIUM: 144.37 MEQ/L
  TOTAL BILIRUBIN: 0.17 mg/dL
  TOTAL PROTEIN: 5.7 G/DL
  URIC ACID: 1.8 mg/dL
[3]
  ABSOLUTE BASOPHIL: 0 CELLS/uL
  ABSOLUTE EOSINOPHIL: 78 CELLS/uL
  ABSOLUTE LYMPHOCYTE: 16011.33 CELLS/uL
  ABSOLUTE MONOCYTE: 75.33 CELLS/uL
  ABSOLUTE SEGMENTED NEUTROPHIL: 1335.33 CELLS/uL
  BASOPHIL: 0%
  EOSINOPHIL: 0.33%
  ERYTHROCYTE COUNT: 6.08 x10E6/uL
  HEMATOCRIT: 37.6%
  HEMOGLOBIN: 15.17 G/DL
  LEUKOCYTE COUNT: 17.5 x10E3/uL
  LYMPHOCYTE: 90.67%
  MEAN CORPUSCULAR HEMOGLOBIN: 24.93 pg
  MEAN CORPUSCULAR HEMOGLOBIN CONCENTRATION: 40.33 G/DL
  MEAN CORPUSCULAR VOLUME: 61.83 fL
  MONOCYTE: 0.67%
  NEUTROPHIL: 8.33%
  NUCLEATED RED BLOOD CELLS: 0 /100WBC
  PLATELET COUNT: 1291.67 x10E3/uL
  ALANINE AMINOTRANSFERASE: 88.33 u/L
  ALBUMIN: 3.93 G/DL
  ALKALINE PHOSPHATASE: 421 u/L
  ASPARTATE AMINOTRANSFERASE: 112.67 u/L
  BLOOD UREA NITROGEN: 8.33 mg/dL
  CARBON DIOXIDE: 23.33 mmol/L
  CHLORIDE: 105.67 MEQ/L
  CHOLESTEROL: 87.33 mg/dL
  CREATINE PHOSPHOKINASE: 340.33 u/L
  CREATININE: 0.13 mg/dL
  GLUCOSE: 142 mg/dL
  LACTATE DEHYDROGENASE: 539.33 u/L
  LIPASE: 12 u/L
  PHOSPHORUS: 13.57 mg/dL
  POTASSIUM: 6.52 MEQ/L
  SODIUM: 146.57 MEQ/L
  TOTAL BILIRUBIN: 0.2 mg/dL
  TOTAL PROTEIN: 5.33 G/DL
  URIC ACID: 2.37 mg/dL
[4]
  ABSOLUTE BASOPHIL: 0 CELLS/uL
  ABSOLUTE EOSINOPHIL: 0 CELLS/uL
  ABSOLUTE LYMPHOCYTE: 12133.67 CELLS/uL
  ABSOLUTE MONOCYTE: 150 CELLS/uL
  ABSOLUTE SEGMENTED NEUTROPHIL: 1216.33 CELLS/uL
  BASOPHIL: 0%
  EOSINOPHIL: 0%
  ERYTHROCYTE COUNT: 6.25 x10E6/uL
  HEMATOCRIT: 37.83%
  HEMOGLOBIN: 14.97 G/DL
  LEUKOCYTE COUNT: 13.5 x10E3/uL
  LYMPHOCYTE: 89.33%
  MEAN CORPUSCULAR HEMOGLOBIN: 23.97 pg
  MEAN CORPUSCULAR HEMOGLOBIN CONCENTRATION: 39.53 G/DL
  MEAN CORPUSCULAR VOLUME: 60.6 fL
  MONOCYTE: 1%
  NEUTROPHIL: 9.67%
  NUCLEATED RED BLOOD CELLS: 0 /100WBC
  PLATELET COUNT: 1251.67 x10E3/uL
  ALANINE AMINOTRANSFERASE: 106.33 u/L
  ALBUMIN: 3.87 G/DL
  ALKALINE PHOSPHATASE: 337.67 u/L
  ASPARTATE AMINOTRANSFERASE: 130.67 u/L
  BLOOD UREA NITROGEN: 10.33 mg/dL
  CARBON DIOXIDE: 24 mmol/L
  CHLORIDE: 102.33 MEQ/L
  CHOLESTEROL: 116.33 mg/dL
  CREATINE PHOSPHOKINASE: 612.33 u/L
  CREATININE: 0.19 mg/dL
  GLUCOSE: 123.33 mg/dL
  LACTATE DEHYDROGENASE: 662.67 u/L
  LIPASE: 12.67 u/L
  PHOSPHORUS: 11.8 mg/dL
  POTASSIUM: 5.41 MEQ/L
  SODIUM: 142.07 MEQ/L
  TOTAL BILIRUBIN: 0.17 mg/dL
  TOTAL PROTEIN: 5.6 G/DL
  URIC ACID: 1.37 mg/dL
